{"source": "patent US20220054411A1", "about": "“MULTIPLE CONCENTRATE FORMULATION FOR MEDICAL PRODUCTS” (priority 2020, published 2022)", "format_in_all_cases": "cell-based", "key": {"Staphylococcus Aureus": {"test_system": "Staphylococcus Aureus", "assay": "Minimal Inhibitory Concentration against Staphylococcus Aureus"}, "Escherichia coli": {"test_system": "Escherichia coli", "assay": "Minimal Inhibitory Concentration against Escherichia coli"}, "[1]": {"test_system": "Staphylococcus epidermidis", "assay": "Minimal Inhibitory Concentration against Staphylococcus epidermidis", "settings": "at 24 hours"}, "Pseudomonas Aeruginosa": {"test_system": "Pseudomonas Aeruginosa", "assay": "Minimal Inhibitory Concentration against Pseudomonas Aeruginosa"}}}
{"molecule": "C/C=C/C=C/C(=O)O", "note": "[Sorbic Acid, sorbic acid]", "values": [{"measurement": "MIC", "setting": "Staphylococcus Aureus; pH 5, at 24 hours", "value": 156, "unit": "µg/mL"}, {"measurement": "MIC", "setting": "Staphylococcus Aureus; pH 6, at 24 hours", "value": 312, "unit": "µg/mL"}, {"measurement": "MIC", "setting": "Staphylococcus Aureus; pH 7, at 24 hours", "value": 1250, "unit": "µg/mL"}, {"measurement": "MIC", "setting": "Escherichia coli; pH 5, at 24 hours", "value": 312, "unit": "µg/mL"}, {"measurement": "MIC", "setting": "Escherichia coli; pH 6, at 24 hours", "value": 1250, "unit": "µg/mL"}, {"measurement": "MIC", "setting": "Escherichia coli; pH 7, at 24 hours", "value": "> 5000", "unit": "µg/mL"}]}
{"molecule": "CCCCCCCCCCCC(=O)OCC(O)CO", "note": "(centres unmarked) [Monolaurin, monolaurin]", "values": [{"measurement": "Minimal Inhibitory Concentration", "setting": "[1]", "value": 1953, "unit": "micrograms per milliliter"}, {"measurement": "Minimal Inhibitory Concentration", "setting": "Staphylococcus Aureus; pH 5, at 24 hours", "value": 16, "unit": "micrograms per milliliter"}, {"measurement": "Minimal Inhibitory Concentration", "setting": "Staphylococcus Aureus; pH 6, at 24 hours", "value": 64, "unit": "micrograms per milliliter"}, {"measurement": "Minimal Inhibitory Concentration", "setting": "Staphylococcus Aureus; pH 7, at 24 hours", "value": 128, "unit": "micrograms per milliliter"}, {"measurement": "Minimal Inhibitory Concentration", "setting": "Escherichia coli; pH 5, at 24 hours", "value": 500, "unit": "micrograms per milliliter"}, {"measurement": "Minimal Inhibitory Concentration", "setting": "Escherichia coli; pH 6, at 24 hours", "value": "2,000 micrograms per milliliter"}, {"measurement": "Minimal Inhibitory Concentration", "setting": "Escherichia coli; pH 7, at 24 hours", "value": ">4,000 micrograms per milliliter"}, {"measurement": "Minimal Inhibitory Concentration", "setting": "Pseudomonas Aeruginosa", "value": 62.5, "unit": "micrograms per milliliter"}]}
